Measurements published in patent US4687864A, “5-fluoro-3-oxa-prostacyclin compounds” (G. D. Searle & Co., priority 1985, dated 1987).
pIC50: −log10 of the molar value.

How the values were obtained:
[1] = test system: ADP-Induced platelet aggregation; assay: Inhibition of ADP-induced platelet aggregation, in vitro (platelet rich plasma); type: cell-based; details: Rattus norvegicus, compound preincubated 1 minute, read-out: Results (IC50 (Molar))
Description: Inhibition of ADP-Induced platelet aggregation, in vitro.
Aggregation was determined using a Payton Dual Channel Aggregation Module. A Riker-Denshi recorder was used fo recording the aggregation curves.
The addition of ADP to platelet-rich plasma induces platelet aggregation.
After the PRP fraction was removed, the remainder was spun at 900×g for 15 mins. to obtain platelet poor plasma (PPP) (1800 RPM in IEC PR 6000). The number of platelets per ml PRP is determined by counting a 50 μl aliquot of PRP in a Coutter ZBI counter and channelyzer Model C-1000.
PRP is diluted with PPP 1:2 to obtain a count of approx. 25000 on the screen or 10^9 platelets/ml PRP to evaluate the anti-aggregating agent. The module was standardized with an aliquot of PPP and that of diluted PRP.
The aggregating agent used is ADP prepared as follows:
Prostacyclin is used as the standard of antiaggregatory activity for determining the potency of compounds tested. A 10^2 M solution (to give a starting concentration of 10^-4 M when 4 μL is added to 400 μL PRP) is diluted serially to obtain solutions with final concentrations of 10^-6, 10^-7, 10^-8, 10^-9 M.
Determine the dose of ADP which on a standard curve would be on the linear portion and allow reversal of the aggregation curve.
Determine the PGI2 standard curve of percentage inhibition of aggregation. Use saline in control cuvette to compare the extent of inhibition by PGI2 are represented by the depth of the aggregation curve. Allow the PRP to preincubate for approximately one minute prior to the addition of prostacyclin and another minute with PGI2 prior to the addition of ADP.
The % inhibition is plotted against prostacyclin dose on semilog paper.
The test compound is added to PRP and preincubated for 1 minute prior to ADP administration.

[2] = test system: ulcerogenic effect induced by certain non-steriodal and steroidal anti-inflammatory agents; details: rats, concomitant oral administration; cited from earlier work
[3] = physiological pH; cited from earlier work
platelet aggregation = details: background, cited from earlier work

CCCCC[C@H](O)/C=C/[C@@H]1[C@H]2C=C(C(F)COCC(=O)OC(C)(C)C)O[C@H]2C[C@H]1O (relative stereo) [1,1-Dimethylethyl(3aS,3aα,6aα)[2-fluoro-2-[4,5,6,6aα-tetrahyro-5β-hydroxy-4α-(3S*-hydroxy-1E-octenyl)-3aS,3aαH,-cyclopenta[b]furanyl]ethoxy]acetate]
pIC50 [1]: 5.40

CCCCC[C@H](O)/C=C/[C@@H]1[C@H]2C/C(=C/COCC(=O)OC(C)(C)C)O[C@H]2C[C@H]1O (relative stereo) [3-oxa prostacyclin Tert-butyl ester, 1,1-Dimethylethyl(3aS,3aα,6aα)[2-[hexahydro-5β-hydroxy-4α-(3S*-hydroxy-1E-octenyl)-2H-cyclopenta-[b]furan-2Z-ylidene]ethoxy]acetate]
pIC50 [1]: 6.00

CCCCC[C@H](O)CC[C@H]1[C@H](O)CC(=O)[C@@H]1CCCCCCC(=O)O [13, 14-dihydro-PGE1]
ulcerogenic effect induced by anti-inflammatory agents [2]: inhibited

CCCCC[C@H](O)/C=C/[C@H]1[C@H](O)CC(=O)[C@@H]1CCCCCCC(=O)O [PGE1]
ulcerogenic effect induced by anti-inflammatory agents [2]: inhibited

CCCCC[C@H](O)/C=C/[C@H]1[C@H](O)CC(=O)[C@@H]1C/C=C\CCCC(=O)O [PGE2]
ulcerogenic effect induced by anti-inflammatory agents [2]: inhibited

CC/C=C\C[C@H](O)/C=C/[C@H]1[C@H](O)CC(=O)[C@@H]1C/C=C\CCCC(=O)O [PGE3]
ulcerogenic effect induced by anti-inflammatory agents [2]: inhibited

CCCCC[C@H](O)/C=C/[C@@H]1[C@H]2C/C(=C/CCCC(=O)O)O[C@H]2C[C@H]1O [Prostacyclin, (5Z)-9-deoxy-6,9α-epoxy-Δ^5 -PGF1]
pIC50 [1]: 8.22 | half period of its activity [3]: only about several minutes | duration of antiplatelet aggregation effect (platelet aggregation): short lived | hypotensive effects (platelet aggregation): often affords unwanted hypotensive effects | doses required for platelet aggregation inhibiting action and antihypertensive action (platelet aggregation; selectivity of action): almost equal to each other
